Measured values as given in PubChem BioAssay AID540258 (Broad Institute, 2011).
Calls of active or inactive are those of the source.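 The calls were made as follows: active = fitted curve reaching 40% activation at or below the top valid dose tested; inconclusive = flat curve at 30 to 70% activation, or poor fit; inactive = the rest.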

system: not listed separately; experiment: activation of TRPM1 promoter luciferase in melanoma cells – SK-MEL-5 cells, cherry-pick samples, dose response (AID 540258); details: SK-MEL-5 TRPM1 promoter luciferase reporter, 24 h; at 11 µM (top of the series); 100% = twice the neutral-control signal;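 as to AC40: potency for activators that raise TRPM1 promoter luciferase signal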

SMILES | activation
Cc1ccn2cc(C(=O)Nc3nnc(C)s3)nc2c1 | 28.3% (inactive)

same assay, conditions: SK-MEL-5 TRPM1 promoter luciferase reporter, 24 h; at 35 µM (top of the series); 100% = twice the neutral-control signal

SMILES | activation
O=C(CNc1ccccc1OC(F)F)N1CCc2ccccc21 | 31.9% (inactive)
Cc1ccn2cc(-c3cccc(NS(C)(=O)=O)c3)nc2c1 | 32.6% (inactive)
COc1ccc(/C=C/c2ccc3c(Br)ccc(O)c3n2)cc1 | 25.4% (inactive)
Cc1ccccc1C(=O)O/N=C(\N)Cc1cccs1 | 23.1% (inactive)
Cc1ccc(SCc2cn3c(C)csc3n2)cc1 | -37.7% (inactive)
Cc1ccc(/C=N/c2sc3c(c2C#N)CCC3)s1 | 3.01% (inactive)
COc1cccc(CN(C)C(=O)c2ccc(COc3ccc(Cl)cc3)cc2)c1OC | 32.6% (inactive)
O=C(CNC(=O)c1cccs1)c1ccc(Br)cc1 | 1.98% (inactive)
Cc1ccc2oc(Nc3nc(C)c(C)c(C)n3)nc2c1 | 34.2% (inactive)
O=c1[nH]c(COc2ccccc2)nc2ccccc12 | 24.6% (inactive)
CN1CCc2c(sc(NC(=O)c3ccc4ccccc4c3)c2C(N)=O)C1 | -68.3% (inactive)
Cc1cccc(C(=O)Nc2sc3c(c2C#N)CCCCC3)c1 | 3.85% (inactive)
CC(C)(C)N1C(=O)c2ccc(C(=O)Nc3nccs3)cc2C1=O | 39% (inactive)
CSCC[C@H](NC(=O)[C@@H]1Cc2ccccc2CN1)C(=O)NC[C@H]1CC[C@H](C(=O)O)CC1 | -11.7% (inactive)
CCN(CC)S(=O)(=O)c1cccc(C(=O)N/N=C(\C)c2cccs2)c1 | 23.7% (inactive)
CCc1nnc(NS(=O)(=O)c2ccc(NC(=O)c3cccc(Cl)c3)cc2)s1 | -14.9% (inactive)
CCN(CC)S(=O)(=O)c1cc(C(=O)Nc2cc(C)[nH]n2)ccc1Cl | 32.8% (inactive)
O=C(Nc1cnc2ccccc2c1)N1CCCCC1 | 8.92% (inactive)
COc1cccc(CNc2nc3ccccc3n2C)c1O | -9.75% (inactive)
Nc1ncccc1OCc1ccc(Br)cc1 | -6.84% (inactive)
Cc1ccc(NC(=O)CN2CCCC2c2cccn2C)c(Br)c1 (stereo not drawn) | 29% (inactive)
O=c1[nH]c(Cc2cccs2)nc2scc(-c3ccc(Cl)cc3)c12 | 14.1% (inactive)
Cc1cc(C)n2nc(SCN3C(=O)c4ccccc4C3=O)nc2n1 | -5.27% (inactive)
COc1ccc(C(=O)Nc2cc(OC)nc(OC)n2)cc1 | 6.12% (inactive)
COc1cccc(/C=N/Nc2c(Cl)cncc2Cl)c1O | 25.5% (inactive)
CCN(CC)C(=O)Oc1ccc2c(=O)c(-c3ccc(OC)cc3)coc2c1 | -22.5% (inactive)
Cc1ccc(Nc2nc(CSc3n[nH]c(N)n3)cs2)cc1 | -11.9% (inactive)
COc1ccc(NC2=Nc3ccccc3CC2)cc1 | 2.84% (inactive)

SMILES | activation
Cc1nc2ccccn2c1C(=O)N/N=C/c1ccc2c(c1)OCO2 | 34.3% (inactive)
C/C(=N\OC(=O)c1cccc(C(F)(F)F)c1)c1sc(-c2ccccc2)nc1C | 14.6% (inactive)
CC(C)(C)C(=O)Nc1nc2cc3c(cc2s1)OCO3 | -25.8% (inactive)
COC(=O)Nc1nnc(-c2ccccc2Cl)s1 | 36% (inactive)
CC(=O)c1ccc(NC(=O)c2noc3c2CCCCC3)cc1 | -0.504% (inactive)
CCN(CC)c1ccc(C(=O)NNC(=O)c2cccn2C)cc1 | 25.3% (inactive)
CCCc1ccc(-c2cc(C(=O)NCCc3ccc(S(N)(=O)=O)cc3)c3ccccc3n2)cc1 | 26.4% (inactive)
CC(C)C(=O)Nc1cccc(C(=O)Nc2nnc(C(C)C)s2)c1 | 16.6% (inactive)
Cc1cc(C)n(-c2nnc(NC(C)(C)C)nn2)n1 | 31.6% (inactive)
O=C(Nc1cccc2[nH]ncc12)c1ccc(F)cc1 | 28.3% (inactive)
CC1CCC(NC(=O)c2cc3c(s2)CCCC3)CC1 (stereo not drawn) | 33.2% (inactive)
CCn1cnc2c(Nc3cccc(Cl)c3)nc(C#N)nc21 | 14.6% (inactive)
COc1ccc(-c2cc(=O)c3cc(C)ccc3[nH]2)cc1 | -4.97% (inactive)
CC(c1ccccc1)c1nnc(NC(=O)Nc2ccccc2F)s1 (stereo not drawn) | 38.2% (inactive)
Cc1c(C(=O)Nc2ccccc2F)cnn1-c1ccccc1 | 27.5% (inactive)
O=C(N/N=C/c1ccc(OC(=O)c2ccccc2Cl)cc1)c1ccccn1 | 6.04% (inactive)
CC(C)(C)c1csc(NC2=NS(=O)(=O)c3ccccc32)n1 | 7.7% (inactive)
Fc1ccccc1Nc1nc2ccccc2o1 | -20% (inactive)
Cc1ccc(N=Nc2ccc(O)cc2)c(Br)c1 | -1.83% (inactive)
COc1ccccc1C(=O)Nc1ccc2c(C)cc(=O)oc2c1 | 29.6% (inactive)
CC(C)NC(=O)c1ccc2c3n(nc2c1)-c1ccc(Cl)cc1CO3 | -2.69% (inactive)
COC(=O)C(C)N1C(=O)S/C(=C/c2cc(C)n(C(C)C)c2C)C1=O (stereo not drawn) | -32% (inactive)
CC(=O)Nc1cccc(-c2csc(Nc3ccc(C)cn3)n2)c1 | -25.2% (inactive)
c1ccc(-c2ccc(-c3cnc4n3CCCCC4)cc2)cc1 | 30.4% (inactive)
Cc1nnc2sc(-c3ccc(N(C)C)cc3)nn2c1=O | -5.15% (inactive)
O=C(Nc1ccccc1)C(=O)Nc1ccc2c(c1)N(C(=O)C1CC1)CCC2 | -36.8% (inactive)
COC(=O)Cn1c(=NC(=O)c2ccc(Cl)s2)sc2cc(C)ccc21 | 23.7% (inactive)

system: SK-MEL-5 TRPM1 promoter luciferase reporter, 24 h; experiment: as above; details: not given

SMILES | AC40
CC1CCC(NC(=O)c2ccc(NS(=O)(=O)c3ccc4[nH]c(=O)[nH]c4c3)cc2)CC1 (stereo not drawn) | 25.1 µM
CC(C)c1ccc(CNc2ncc(Br)cn2)cc1 | 3.76 µM
CCc1ccc(NC(=O)c2ccc3nc(N)sc3c2)cc1 | 5.39 µM
O=C(NCCSc1ccccn1)c1ccc(Cl)cc1Cl | 0.959 µM
CN(C)c1ccnc2sc3c(SCc4ccc(Cl)cc4)ncnc3c12 | 4.29 µM
Cc1ccc(C(=O)Nc2cccc(O)c2)cc1S(=O)(=O)N1CCCCCC1 | 8.12 µM
CC(=O)Nc1c(-c2ccc3ccccc3c2)nc2ccccn12 | 9.16 µM
Cc1ccc(NC(=O)Nc2ccc3oc(C)nc3c2)cc1 | 1.39 µM
O=C(NC1CCCCCC1)c1cc2c(=O)n3ccccc3nc2s1 | 8.63 µM
Cc1ccc(Nc2ncnc3ccccc23)cc1 | 2.23 µM
Cc1ccc2cc(/C=N/Nc3ccc(C(=O)O)cc3)c(Cl)nc2c1 | 1.37 µM
Cc1cccc(C(=O)Nc2ccn(C)n2)c1 | 24.4 µM
O=C(Oc1ccc2ccccc2c1Cl)N1CCCCCC1 | 0.557 µM
CC(=O)c1ccc(NC(=O)Nc2ccc3c(c2)nc(C)n3C)cc1 | 31.2 µM
Cc1ccc(NCC(=O)c2ccc(C)cc2)cc1 | 9.65 µM
COc1ccc(-c2ccc(C(=O)C3CC3)cc2)cc1 | 0.775 µM
Nc1c(C(=O)N2CCCC2)sc2nc(-c3ccccc3)ccc12 | 6.19 µM
CCCCc1nc2cc(C(=O)N3CCN(c4nc(C)cnc4C)CC3)ccc2o1 | > 35 µM (inactive)
Cc1ccccc1S(=O)(=O)Oc1ccc2ccc(O)cc2c1 | 25.7 µM
Cc1ccc(NC(=O)C(=O)NCc2ccccn2)cc1 | 16.4 µM
Cc1ccccc1S(=O)(=O)/N=C(/Nc1nc2ccccc2s1)c1ccccc1 | 31 µM

SMILES | AC40
Cc1ccc(-c2noc(C3CCCCC3)n2)cc1 | 1.68 µM
O=C(Nc1ccccc1Cl)c1ccc2nccnc2c1 | 4.21 µM
CSCc1ccc(C(=O)Nc2cc(C)cc(C)c2)cc1 | 2.81 µM
COc1ccc(C(=O)NCCn2ccc3ccccc32)cc1 | 1.66 µM
c1ccc(Nc2ccc(Nc3ccccc3)cc2)cc1 | 23.7 µM
O=C(Nc1ccc(O)cc1)c1cc2ccccc2c(=O)s1 | 2.3 µM
O=C(NCC1CC1)Nc1ccc(Cl)cc1 | 12.9 µM
Cn1c(SCc2c(F)cccc2Cl)nnc1-c1cnccn1 | 6.16 µM
c1ccc(SCc2nc(-c3ccccn3)no2)cc1 | 3.01 µM
Cc1ccc(C(=O)Cn2nnc3ccccc32)cc1C | 0.858 µM
CC1(C)CN=c2s/c(=C\c3ccc(Cl)cc3)c(=O)n2C1 | 1.21 µM
O=C(Cc1ccccc1)Nc1ccc2c(c1)OC1(CCCC1)O2 | 3.23 µM
CC/C(=N\NC(=O)c1csc(C)c1C)c1cccs1 | 0.733 µM
c1ccc(CSc2ccc(-c3ccc4c(c3)OCO4)nn2)cc1 | 2.38 µM
O=C(O)c1ccc(/C=C/c2ccc3cccc(O)c3n2)cc1 | 0.876 µM
Cn1c(-c2ncc(F)cc2F)cc2onc(-c3c(F)cccc3Cl)c2c1=O | > 35 µM (inactive)
CC(C)Cc1cc(C(=O)Nc2ccc(Br)cc2)no1 | 1.8 µM
COC(=O)C(Cc1ccc(O)cc1)N1Cc2ccccc2C1=O (stereo not drawn) | 5.9 µM
Cc1ccc(NC(=O)c2ccccc2Cl)c(Cl)c1 | 4.2 µM
O=C(NCCC1=CCCCC1)NC12CC3CC(CC(C3)C1)C2 | 0.703 µM
CN(c1ccccc1)c1nc2ccsc2c(=O)s1 | 5.15 µM
